Experimental data: US6950757B2, “Screening methods for identifying ligands” (Emerald BioStructures, Inc., priority 2001, dated 2005)
Blank lines part the entries; values can stand above or below the molecule they belong to.

Key:
Format in all cases: binding
[1] = molecular target: T1, topo70-DNA covalent complex (Homo sapiens, UniProt P11387); assay: Crystal growth assay (crystal growth dependence on ligand), T80P CBS-cross solutions; details: 16° C.
T1 construct: human topoisomerase I construct of residues Lys175 to Phe765; made in house; host or cells: baculovirus-insect cell (SF9)
T1 sequence (P11387 175-765): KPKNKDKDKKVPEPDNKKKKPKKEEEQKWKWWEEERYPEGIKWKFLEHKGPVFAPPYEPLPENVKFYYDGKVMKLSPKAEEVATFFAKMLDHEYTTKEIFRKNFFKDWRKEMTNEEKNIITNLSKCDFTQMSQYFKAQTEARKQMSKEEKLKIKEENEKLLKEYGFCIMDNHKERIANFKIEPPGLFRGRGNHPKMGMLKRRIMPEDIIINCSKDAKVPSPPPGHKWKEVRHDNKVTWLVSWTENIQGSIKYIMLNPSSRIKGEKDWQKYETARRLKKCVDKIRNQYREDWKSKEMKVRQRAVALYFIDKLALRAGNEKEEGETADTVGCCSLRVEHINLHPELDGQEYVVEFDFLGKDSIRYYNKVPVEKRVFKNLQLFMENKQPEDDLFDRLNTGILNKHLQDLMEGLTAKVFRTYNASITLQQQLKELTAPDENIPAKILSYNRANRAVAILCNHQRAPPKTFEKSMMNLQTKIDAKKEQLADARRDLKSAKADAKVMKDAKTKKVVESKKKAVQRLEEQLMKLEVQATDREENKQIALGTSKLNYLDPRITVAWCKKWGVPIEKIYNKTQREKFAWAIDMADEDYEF
Description: The chemical components of each crystallization formulation were classified as being either a crystallant, buffer, or salt. The various crystallants were as follows:
CBS-cross crystallization screening formulations were prepared with all possible combinations of crystallants, buffers and salts.
In one set of crystallization experiments, the T80P crystallization screen was used in a Combinatorial Clover Plate developed by Emerald BioStructures, Inc. [Kim et al.], which allows for the rapid set up of multiple crystallizations in a common vapor diffusive environment.
The 24 reservoir chambers of the Combinatorial Clover Plate were filled with 1.0 milliliter of each of the 24 different T80P formulations. Once the T80P formulations had been individually placed into the reservoir chambers, 2 microliters of each individual crystallization screening formulation was placed into each of the four the sitting drop chambers that are connected to the common reservoir by dedicated vapor diffusion channels. This was followed by the addition of 1 microliter of duplex suicide oligonucleotide substrate (0.05 mM duplex, 6 mM NaCl) into the drop chamber.
The duplex was mixed with the crystallization screening solution by repeated pipetting. This was followed by the addition 0.1 microliter of 10 mM Topotecan to the upper two drop chambers of each crystallization clover. […]

[2] = molecular target: T1, topo70-DNA covalent complex; assay: Crystallization trials with VII-2 solutions in the absence or presence of Topotecan; details: condition VII-2 #3; 1 microliter of 1 mM ligand in water vs water only; 16° C., several days
Description: The four different VII-2 formulations each contained one or more of the chemical components found in the lead crystallization conditions, plus additional components such as 10 mM DTT. The four VII-2 crystallization conditions were as follows:
A Cryschem tray was used to screen each of the four VII-2 crystallization solutions for their ability to promote crystallization of topo70-DNA complexes in the absence or presence of Topotecan, an analogue of camptothecin. The crystallization experiments were set up by first placing 500 microliters of the VII-2 screening solutions in duplicate individual reservoir chambers. Next, 3 microliters of each reservoir solution was placed into the drop chambers. The drop chamber solutions were then mixed by pipetting with 1.5 microliters of 0.05 mM suicide duplex oligonuceotide substrate in 6 mM NaCl. One microliter of 1 mM Topotecan in pure water or 1 microliter of pure water only was added to each of the duplicate drop chambers. Then 2 microliters of topo70 at 3 mg/ml in 10 mM Tris-HCl pH 7.5, 1 mM EDTA, and 1 mM DTT was added to each of the drop chambers. The crystallization tray was sealed with crystal clear sealing tape (marketed by Manco, Inc. Avon, Ohio), and incubated at 16° C.

[3] = molecular target: T2, topo70-DNA covalent complex (Form 7 apo-crystals) (Homo sapiens, UniProt P11387); assay: Crystal cracking of Form 7 crystals (crystal-cracking assay); details: 16° C., approximately 3 hours
T2 construct: human topoisomerase I construct of residues Lys175 to Phe765; made in house; host or cells: baculovirus-insect cell (SF9)
T2 sequence (P11387 175-765): T1 sequence (P11387 175-765)
Excerpt: Cracking of the crystal after exposure to the potential ligand(s) indicates binding between at least one potential ligand and the macromolecule. This assay is referred to herein as the “crystal-cracking” assay.
The crystal cracking assay of the invention involves the development of optimized crystal growth conditions that depend on the absence of the ligand to produce a supply of macromolecule crystals, referred to herein as apo-crystals, then soaking the apo-crystals in a solution containing one or more potential ligands. If a ligand actually binds to the macromolecule, it initiates a conformational change in the crystal resulting in an observable cracking of the crystal.
Several rounds of similar optimization screening experiments eventually led to the identification of a definitive crystallization condition that produces crystals of the topo70-DNA covalent complex only in the absence of Topotecan (designate Form 7). The Form 7 crystals were grown at 16° C. under optimized conditions by vapor diffusion equilibration against a 500 microliter reservoir solution of 10% PEG 8000, 100 mM Tris-HCl pH 8.0, 100 mM Na/K phosphate pH 6.2, 100 mM KCl, and 10 mM DTT. The sitting drop crystallizations were prepared in drop chambers by mixing 2 microliters of reservoir solution with 2 microliters of 0.1 mM duplex DNA substrate in 6 mM NaCl, and 2 microliters 4 mg/ml topo70 in 10 mM Tris-HCl pH 7.5, 1 mM EDTA, and 1 mM DTT.
In order to test the effects of Topotecan and other topo I poisons on the integrity of Form 7 crystals, crystallization drops containing Form 7 crystals were subjected to the following treatments:
1. Injection of 3 microliters of a buffer solution containing 100 mM MES pH 6.3, and 100 mM Na/K phosphate pH 6.2 (buffer only control).
2. Injection of 3 microliters of 100 mM MES pH 6.3, 100 mM Na/K phosphate pH 6.2, and 0.32 mM Topotecan.
3. Injection of 3 microliters of 100 mM MES pH 6.3, 100 mM Na/K phosphate pH 6.2, 13% v/v DMSO, and 0.64 mM camptothecin.
4. […]

[4] = injection of 3 microliters of 0.64 mM ligand in 100 mM MES pH 6.3, 100 mM Na/K phosphate pH 6.2, 13% v/v DMSO

SMILES: CC[C@@]1(O)C(=O)OCc2c1cc1n(c2=O)Cc2cc3c(CN(C)C)c(O)ccc3nc2-1 [Topotecan]
ligand-dependent crystal growth (Form 9 crystals) ([1]; T80P #9 and T80P #10, 0.1 microliter of 10 mM ligand, day 28, no crystals when ligand absent): produced crystals of distinct block morphology when Topotecan was present | growth of putative topo70-DNA covalent complex crystals (Form 7) with ligand present vs absent [2]: grow in condition VII-2 #3 only when Topotecan was absent | effect on integrity of Form 7 crystals (crystal cracking) ([3]; injection of 3 microliters of 0.32 mM ligand in 100 mM MES pH 6.3, 100 mM Na/K phosphate pH 6.2): showed visible signs of micro cracks throughout the crystals

SMILES: CC[C@@]1(O)C(=O)OCc2c1cc1n(c2=O)Cc2cc3cc4c(cc3nc2-1)OCO4 [10,11 MDO-camptothecin, 10,11 MDO camptothecin]
effect on integrity of Form 7 crystals (crystal cracking) [3, 4]: had dissolved leaving only a trace pile of crystal bits

SMILES: CC[C@@]1(O)C(=O)OCc2c1cc1n(c2=O)Cc2cc3ccccc3nc2-1 [camptothecin]
effect on integrity of Form 7 crystals (crystal cracking) [3, 4]: showed visible signs of micro cracks throughout the crystals

ligand-dependent crystal growth of ternary complex crystals ([1]; T80P #10, 0.5 microliter of 1 mM AG260 in 100% DMSO or 0.3 microliter of 1 mM MJ-II-38 in 90% v/v DMSO, several days): plate like crystals grew
SMILES: O=C(O)CCCn1c2c(c3ccccc3c1=O)C(=O)c1ccccc1-2 [MJ-II-38]
